Starred links: 1 amine or outer side, 2 acyl side, 3 side chain; linkers in the order of their positions; H or OH if unused. Positions of bridges follow the written chain, without caps; N, C: chain ends. Non-standard residues stand in square brackets, D forms with d. Residues, ends and D or L forms follow the SMILES beside them. No end group written: not given here. *: point of attachment. RhodamineB = CCN(CC)c1ccc2c(-c3ccccc3C(=O)*)c3ccc(=[N+](CC)CC)cc-3oc2c1; Trimesoyl = O=C(c1cc(C(=O)[*:2])cc(C(=O)[*:3])c1)[*:1]; 2Nal = N[C@@H](Cc1ccc2ccccc2c1)C(=O)O; Phg = N[C@H](C(=O)O)c1ccccc1; Pip = O=C(O)[C@@H]1CCCCN1; Dap = NC[C@H](N)C(=O)O
Legend:
NIH 3T3 cells = assay: Anti-pY western blot of global pY protein levels; format: cell-based; details: 0-500 nM, 2 h
Experimental: NIH 3T3 cells were cultured in full growth media to reach 80% confluence. The cells were starved in serum free media for 3 h and treated with different concentrations of cFΦR4-PTP1B or untagged PTP1B for 2 h, followed by 30 min incubation in media supplemented with 1 mM sodium pervanadate. The solutions were removed and the cells were washed with cold DPBS twice. The cells were detached and lysed in 50 mM Tris-HCl, pH 7.4, 150 mM NaCl, 1% NP-40, 10 mM sodium pyrophosphate, 5 mM iodoacetic acid, 10 mM NaF, 1 mM EDTA, 2 mM sodium pervanadate, 0.1 mg/mL phenylmethanesulfonyl fluoride, 1 mM benzamidine, and 0.1 mg/mL trypsin inhibitor. After 30 min incubation on ice, the cell lysate was centrifuged at 15,000 rpm for 25 min in a microcentrifuge. The total cellular proteins were separated by SDS-PAGE and transferred electrophoretically to PVDF membrane, which was immunoblotted using anti-pY antibody 4G10.
NIH 3T3 cells were incubated for 2 h in the presence of untagged PTP1B or cFΦR4-PTP1B and their global pY protein levels were analyzed by anti-pY western blotting (FIG. 12A). […] Several proteins in the 150-200 kD range were completely dephosphorylated upon the addition of 62 nM cFΦR4-PTP1B, whereas proteins of ˜80 kD remained phosphorylated at 500 nM cFΦR4-PTP1B.

CAL-PDZ domain = CAL-PDZ domain (Homo sapiens, UniProt Q9HD26); assay: Fluorescence anisotropy binding to CAL-PDZ; details: absence of a reducing agent
Experimental: The full fluorescence anisotropy (FA) titration experiment was performed by incubating 100 nM fluorophore-labeled peptidyl ligands with varying concentrations (0-6 μM) of CAL-PDZ (Cushing, P R et al. […] The FA values were measured on a Molecular Devices Spectramax M5 spectrofluorimeter, with excitation and emission wavelengths at 485 nm and 525 nm, respectively. Equilibrium dissociation constants (KD) were determined by plotting the fluorescence anisotropy values as a function of CAL-PDZ concentration. The titration curves were fitted to the following equation, which assumes a 1:1 binding stoichiometry
where Y is the measured anisotropy at a given CAL-PDZ concentration x; L is the bicyclic peptide concentration; Qb/Qf is the correction fact for dye-protein interaction; Amax is the maximum anisotropy when all the peptides are bound to CAP-PDZ, while Amin is the minimum anisotropy when all the peptides are free.

HeLa cells [1] = assay: Live-cell confocal microscopy of FITC-labeled peptides; format: cell-based, human; details: 5 μM
Experimental: To detect peptide internalization, 1 mL of HeLa cell suspension (5×10^4 cells) was seeded in a 35 mm glass-bottomed microwell dish (MatTek) and cultured overnight. Cells were gently washed with DPBS twice and treated with FITC labeled peptides (5 μM) and dextran^Rho (0.5 mg mL^−1) in phenol-red free DMEM containing 1% serum at 37° C. for 1 h in the presence of 5% CO2. After removal of the medium, the cells were gently washed with DPBS twice and incubated with 5 μM DRAQS in DPBS for 10 min. The cells were again washed with DPBS twice and imaged on a Visitech Infinity 3 Hawk 2D-array live cell imaging confocal microscope. Images were captured under the same parameters and adjusted under the same setting using MetaMorph (Molecular Devices).

[2] = test system: Bronchial epithelial CFBE cells; assay: Immunofluorescent staining of ΔF508-CFTR; format: cell-based; details: 10 μM Corr-4a and 50 μM unlabeled peptide 8
Experimental: After the treatments, cells were fixed in cold methanol for 20 min. The slides were then incubated in 1% BSA/PBS for 10 min, followed by incubation at 37° C. for 1 h with mouse anti-human monoclonal CFTR antibody (R&D Systems). Thereafter, the slides were incubated at 37° C. for 45 min with Alexa Fluor® 488-conjugated anti-mouse IgG2a secondary antibody. Cells were visualized on a Leica TCS SP2 AOBS confocal laser scanning microscope. All measurements were conducted in a double-blinded manner by two independent investigators.

ΔF508-CFTR CFBE cells = assay: SPQ intracellular chloride concentration assay; format: cell-based; details: 20 μM VX809 and 50 μM peptide 8
Experimental: A SPQ (6-Methoxy-N-(3-sulfopropyl)quinolinium) assay was utilized to estimate the transport activity of ΔF508-CFTR activity in CFBE cells, as the fluorescence of SPQ is negatively correlated with increasing concentration of intracellular chloride (Illsley, N P and Verkman, A S. Biochemistry 1987, 26, 1215). CFBE cells were grown on 96-well plate, which was pre-coated with 1 mg/ml human fibronectin, 3 mg/ml collagen I bovine, and 1 mg/ml bovine serum albumin, using DMEM media supplemented with L-glutamine and 10% FBS. […] Cells were then loaded with SPQ using hypotonic shock at 37° C. for 15 min with 10 mM SPQ containing 1:1 (v/v) Opti-MEM/water solution. The cells were then washed and incubated twice for 10 min with fluorescence quenching NaI buffer (130 mM NaI, 5 mM KNO3, 2.5 mM Ca(NO3)2, 2.5 mM Mg(NO3)2, 10 mM D-glucose, 10 mM N-(2-hydroxyethyl) piperazine-N′-(2-ethanesulfonic) acid (HEPES, pH 7.4)). […] Fluorescence non-specific to CFTR-mediated iodide efflux was measured by incubating the cells with the activation cocktail and the CFTR specific inhibitor GlyH101 (10 μM). The effects of CAL-PDZ inhibitors were evaluated by the fluorescence increasing rate above the basal level. The fluorescence of dequenched SPQ was measured using the plate reader VICTOR X3 (Perkin Elmer) with excitation wavelength at 350 nm and DAPI emission filter. […]

HeLa cells [3] = assay: MTT proliferation assay with Pin1 inhibitors; format: cell-based, human; details: MTT
Experimental: HeLa cells (100 μL/each well, 5×10^4 cells/mL) were seeded in a 96-well culture plate and allowed to grow overnight in DMEM supplemented with 10% FBS. […] After that, 10 μL of a MTT stock solution (5 mg/mL) was added into each well. The plate was incubated at 37° C. for 4 h and 100 μL of SDS-HCl solubilizing solution was added into each well, followed by thorough mixing. The plate was incubated at 37° C. overnight and the absorbance of the formazan product was measured at 570 nm on a Molecular Devices Spectramax M5 plate reader. Each experiment was performed in triplicates and the cells untreated with peptide were used as control.

HeLa cells [4] = assay: FACS uptake of FITC-labeled peptides; format: cell-based, human; details: 5 μM, 2 h
[5] = test system: α-chymotrypsin and trypsin; assay: Peptide proteolysis stability assay; format: in vitro ADME; details: 37° C.
Experimental: The stability tests were carried out by slightly modifying a previously reported procedure (Frackenpohl, J et al. Chembiochem 2001, 2, 445). 24 μL of 1.5 mM peptide solution was incubated at 37° C. with 30 μL 50 μM of α-chymotrypsin and 30 μL 50 μM of trypsin in 200 μL of working buffer (50 mM Tris-HCl, pH 8.0, NaCl (100 mM), CaCl2 (10 mM)). At various time points (0-12 h), 40 μL aliquots were withdrawn and mixed with 40 μL of 15% trichloroacetic acid and incubated at 4° C. overnight. The final mixture was centrifuged at 15,000 rpm for 10 min in a microcentrifuge, and the supernatant was analyzed by reversed-phase HPLC equipped with a C18 column (Waters). The amount of remaining peptide (%) was determined by integrating the area underneath the peptide peak (monitored at 214 nm) and compared with that of control reaction (no proteases).

HEK293 cells = assay: FACS uptake of rhodamine-labeled bicyclic vs monocyclic peptide; format: cell-based, human
Text: In recent years, there has been much interest in cyclic peptides as therapeutic agents and biomedical research tools (Driggers, E M et al. Nat. Rev. Drug Discov., 2008, 7, 608-624; Marsault, E and Peterson, M L. J. Med. Chem., 2011, 54, 1961-2004). For example, cyclic peptides are effective for inhibition of protein-protein interactions (Lian, W et al. J. Am. Chem. Soc., 2013, 135, 11990-11995; Liu, T et al. ACS Comb. Sci., 2011, 13, 537-546; Dewan, V et al. ACS Chem. Biol., 2012, 7, 761-769; Wu, X et al. Med. Chem. Commun., 2013, 4, 378-382), which are challenging targets for conventional small molecules. A major obstacle in developing cyclic peptide therapeutics is that they are generally impermeable to the cell membrane (Kwon, Y U and Kodadek, T. Chem. Biol., 2007, 14, 671-677; Rezai, T et al. J. Am. Chem. Soc., 2006, 128, 2510-2511; Chatterjee, J et al. Acc. Chem. Res., 2008, 41, 1331-1342). […] The bicyclic peptides were readily synthesized by forming three amide bonds between a trimesoyl scaffold and three amino groups on the corresponding linear peptide (i.e., the N-terminal amine, the side chain of a C-terminal diaminopropionic acid (Dap), and the side chain of a lysine (or ornithine, Dap) imbedded in between the CPP and target-binding motifs) (Lian, W et al. J. Am. Chem. Soc., 2013, 135, 11990-11995). […]

In the case of “cFΦR4-PTP1B: cFΦR4 conjugated to ybbR-tagged PTP1B catalytic domain via a thioether bond”, the “Global pY protein levels” value (NIH 3T3 cells) is reported as “concentration-dependent decrease in pY levels”.

For `C[C@@H]1NC(=O)[C@H](CCCNC(=N)N)NC(=O)[C@H](Cc2ccc3ccccc3c2)NC(=O)[C@@H]2CCCCN2C(=O)[C@@H]([C@H](C)O)NC(=O)[C@H](c2ccccc2)NC(=O)[C@H](Cc2c[nH]cn2)NC(=O)c2cc3cc(c2)C(=O)NC[C@H](NC(=O)[C@@H](C)NC1=O)C(=O)N[C@@H](Cc1ccccc1)C(=O)N[C@@H](Cc1ccc2ccccc2c1)C(=O)N[C@@H](CCCNC(=N)N)C(=O)N[C@@H](CCCNC(=N)N)C(=O)N[C@@H](CCCNC(=N)N)C(=O)N[C@@H](CCCNC(=N)N)C(=O)N[C@H](C(=O)N[C@@H](CCCCN)C(N)=O)CNC3=O` [Peptide 8, bicyclo[Tm-(His-Phg-D-Thr-Pip-Nal-Arg-Ala-D-Ala)-Dap-(Phe-Nal-Arg-Arg-Arg-Arg-Dap)]-Lys] (H[Phg][dT][Pip][2Nal]RA[dA][Dap]F[2Nal]RRRR[Dap]K-NH2; linker N-9-16 via Trimesoyl; C-terminus assumed), the “Binding to CAL-PDZ domain” value (CAL-PDZ domain) was “no detectable binding”, the “Intracellular FITC fluorescence (confocal)” value (HeLa cells [1]) was “intense and diffuse fluorescence throughout the entire cell” and the “ΔF508-CFTR at the cell surface” value [2] was “much greater amounts of the protein at the cell surface”. The “Ion channel activity of ΔF508-CFTR” value (ΔF508-CFTR CFBE cells) was “acted synergistically” and the “Effect on cell growth” value (HeLa cells [3]) was “inhibited cell growth, but to a lesser extent than inhibitor 7”.

With “CH3CH2CH2CO-FΦRRRRUK(FITC)-NH2 [Peptide 2 (Example 2)]” the “Mean fluorescence intensity (MFI), total intracellular FITC fluorescence” value (HeLa cells [4]) was 5530 arbitrary units (AU), the “Half-life with protease cocktail” value [5] was roughly 20 min and the “Intracellular FITC fluorescence (confocal)” value (HeLa cells [1]) was “much weaker intracellular fluorescence”.

In the case of “[Tm(AAAAA)K(RRRRΦF)J]-K(Rho) (Trimesoyl-AAAAAKRRRR[2Nal]F[Dap]K(RhodamineB); linker (positions not given here) via Trimesoyl; not fully specified (C-terminus, bridges); printed as [Tm(AAAAA)K(RRRRΦF)J]-K(Rho)) [bicyclo(FΦR4-A5)^Rho]”, the “Uptake more efficient than corresponding monocyclic peptide (compound 17)” value (HEK293 cells) is reported as roughly 3 fold.
